{"source": "patent US11752162B2", "about": "“Compounds and compositions for treating solid tumors by intratumoral administration” (Novartis AG, priority 2017, dated 2023)", "key": {"[1]": {"test": "Wistar rat subcutaneous PK, fixed aluminum hydroxide 5 mg/mL (Example 10)", "type": "in vivo", "experimental": "The pharmacokinetic properties of Compound 15 were examined in naïve male Wistar rats following: • a) a single 200 μL subcutaneous (s.c.) injection of 600 μg of free form Compound 15 in 100 mM Tris buffer pH 7.4; • b) a single 200 μL subcutaneous (s.c.) injection of 50 μg of Compound 15 adsorbed to aluminum hydroxide at a 1:20 ratio (w/w) of Compound 15 to aluminum hydroxide-Suspension G described below; • and • c) a single 200 μL subcutaneous (s.c.) injection of 600 μg of Compound 15 adsorbed to aluminum hydroxide at a 1:1.7 ratio (w/w) of Compound 15 to aluminum hydroxide-Suspension F described below.\nThe systemic concentration of Compound 15 was evaluated following a single 200 μL subcutaneous injection of two different dose levels of Compound 15 adsorbed to aluminum hydroxide, where the aluminum hydroxide was at a fixed dose concentration of 5 mg/mL.\nIn this study, two groups male Wistar rats (n=3 per group) were injected subcutaneously (s.c.) with either 50 μg or 600 μg of Compound 15 absorbed to aluminum hydroxide. An injection volume of 200 μL of Suspension G and Suspension F was used to obtain 50 and 600 μg of Compound 15 absorbed to aluminum hydroxide, respectively. The injection volume of 200 μL per rat was not normalized to body weights of the rats. As described above the Compound 15/aluminum hydroxide ratio for Suspension F was 1:1.7 w/w, while for Suspension G it was 1:20 w/w.\nBlood samples (˜100 μL each) were taken serially via saphenous bleed from each rat until 168 h post dose (see Table 9 for sampling schedule). Blood samples were centrifuged to separate plasma and the plasma samples were frozen at −20° C. prior to analysis using LC/MS/MS (as described in Example 5) to obtain the systemic concentrations of Compound 15."}, "A20 tumors": {"system": "A20 tumors", "test": "Mouse syngeneic lymphoma A20 bilateral tumor model, single agent dose response", "type": "in vivo", "conditions": "Compound 15 alone i.t., two weekly doses", "experimental": "The anti-tumor efficacy of Compound 15 adsorbed to Alhydrogel® was determined using the mouse syngeneic lymphoma A20 bilateral tumor model in female BALB/c mice.\nA20 cells were grown in sterile conditions in a 37° C. incubator with 5% CO2 for two weeks. Cells were grown in RPMI 1640 medium with 2 mM L-glutamine adjusted to contain 1.5 g/L sodium bicarbonate, 4.5 g/L glucose, 10 mM HEPES, and 1.0 mM sodium pyruvate and supplemented with 0.05 mM 2-mercaptoethanol, 10% fetal bovine serum. Cells were passaged every 2-3 days. For the day of implant cells were lifted (passage 12) and re-suspended in HBSS at a concentration of 5×10^6 cells/100 μL. Cells were Radil tested for mycoplasma and murine viruses. For each mouse, 5×10^6 cells were implanted by subcutaneous injection into the right and left flank using a 28.5 g needle (100 μl injection volume). Tumor sizes were assessed three times a week once tumors were palpable. Tumor sizes were determined by using caliper measurements, with tumor volumes calculated using the formula: (Length×Width×Width)/2.\nThe female Balb/c mice bearing the A20 tumors were randomized into 7 groups (n=10 mice per group) 8 days post tumor cell implantation with an average tumor volume range of 111.40±23.57 mm^3. […]\nTumor volumes were measured by digital caliper 3 times a week and body weights of all animals were recorded throughout the study. […]"}, "in vivo": {"test": "in vivo", "conditions": "female, C57/BL6, mouse, iv, 2 mg/kg"}, "human TLR7": {"target": "T1, human TLR7 (Homo sapiens, UniProt Q9NYK1)", "T1 sequence (Q9NYK1 27-1049)": "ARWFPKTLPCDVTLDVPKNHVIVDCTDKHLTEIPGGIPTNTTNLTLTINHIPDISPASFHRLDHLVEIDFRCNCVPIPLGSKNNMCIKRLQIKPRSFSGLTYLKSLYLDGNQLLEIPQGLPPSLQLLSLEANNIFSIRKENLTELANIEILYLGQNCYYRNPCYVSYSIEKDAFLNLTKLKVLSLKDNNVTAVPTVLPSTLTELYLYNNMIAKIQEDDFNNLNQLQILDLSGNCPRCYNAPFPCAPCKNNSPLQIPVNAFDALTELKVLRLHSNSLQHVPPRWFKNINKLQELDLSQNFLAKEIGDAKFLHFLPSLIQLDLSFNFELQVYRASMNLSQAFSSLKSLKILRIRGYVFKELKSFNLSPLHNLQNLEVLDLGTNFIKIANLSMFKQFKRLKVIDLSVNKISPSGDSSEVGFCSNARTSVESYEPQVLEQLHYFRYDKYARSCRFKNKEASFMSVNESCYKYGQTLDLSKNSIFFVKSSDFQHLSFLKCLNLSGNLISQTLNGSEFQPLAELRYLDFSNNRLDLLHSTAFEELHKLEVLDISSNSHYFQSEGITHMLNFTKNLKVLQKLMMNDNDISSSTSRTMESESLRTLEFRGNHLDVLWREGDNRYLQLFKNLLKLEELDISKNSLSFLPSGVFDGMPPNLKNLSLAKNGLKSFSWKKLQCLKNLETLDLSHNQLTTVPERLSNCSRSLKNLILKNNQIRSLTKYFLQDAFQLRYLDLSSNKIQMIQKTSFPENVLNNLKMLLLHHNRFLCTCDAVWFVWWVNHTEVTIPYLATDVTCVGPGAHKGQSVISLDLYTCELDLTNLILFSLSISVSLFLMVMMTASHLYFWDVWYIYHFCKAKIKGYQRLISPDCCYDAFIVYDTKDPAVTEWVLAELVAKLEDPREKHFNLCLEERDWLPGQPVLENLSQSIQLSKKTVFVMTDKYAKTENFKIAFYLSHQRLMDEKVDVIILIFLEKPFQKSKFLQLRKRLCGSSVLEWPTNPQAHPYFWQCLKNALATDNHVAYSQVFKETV", "test": "TLR7 reporter gene assay (NF-kB-driven luciferase) in HEK293 cells"}, "[2]": {"conditions": "rat, sc, 600 ug, 600 μg Compound 15 s.c., male Wistar rats, plasma, Table 15 (free compound data from Example 9)"}}, "data": [{"smiles": "Cc1cc(OCCOCCC(F)(F)P(=O)(O)O)ccc1CCc1cnc2c(N)nc3cc(CCC(=O)O)ccc3c2c1", "note": "[Compound 15, 3-(5-amino-2-(4-(2-(3,3-difluoro-3-phosphonopropoxy)ethoxy)-2-methylphenethyl)benzo[f][1,7]naphthyridin-8-yl)propanoic acid]", "values": [{"measurement": "retention of Compound 15 at the local injection site", "setting": "[1]; adsorbed onto aluminum hydroxide, following subcutaneous injection, rats", "value": "up to 1 week"}, {"measurement": "AUC(0-inf)", "setting": "[1]; [2]", "value": 2560, "unit": "ng·h/mL"}, {"measurement": "Cmax", "setting": "[1]; [2]", "value": 3660, "unit": "ng/mL"}, {"measurement": "Tmax", "setting": "[1]; [2]", "value": 15, "unit": "min"}, {"measurement": "half-life", "setting": "[1]; [2]", "value": 126, "unit": "min"}, {"measurement": "tumor growth, both tumor sites", "setting": "A20 tumors", "value": "no significant difference in both tumor sites"}, {"measurement": "MRT", "setting": "in vivo", "value": 10.2, "unit": "min"}, {"measurement": "clearance", "setting": "in vivo", "value": 18.1, "unit": "mL/min/kg"}, {"measurement": "half-life", "setting": "in vivo", "value": 60, "unit": "min"}, {"measurement": "EC50", "setting": "human TLR7", "value": 96, "unit": "nM"}]}]}
